Source: patent US12600732B2, “Bifunctional compounds for degrading BTK via ubiquitin proteosome pathway” (NURIX THERAPEUTICS, INC., priority 2019, dated 2026)
Like-named read-outs stand apart in the source and are kept apart here.

Tests used:
[1] = system: B cell receptor (BCR) signaling; test: B cell activation assay (flow cytometry), mouse B cells; format: cell-based; conditions: treatment 4 h, IgM stimulation 18 h
Procedure: Compound was present throughout the stimulation. Cells were stained with Live/Dead dye (Fisher L34976) and then fluorophore-conjugated antibodies against CD20 (Biolegend 302330), CD3 (BD Pharmingen 557705), CD86 (Biolegend 305416) and CD69 (Biolegend 310906). Stained cells were fixed in PFA and run on an Attune N×T Acoustic Focusing Flow Cytometer (Thermo-Fisher A29004), and data was analyzed using FlowJo (v10.5.3) and GraphPad Prism (v7.00) software. Single live lymphocytes were gated for B cells (CD20+CD3−) and T cells (CD3+CD20−), and the geometric mean fluorescence intensity (MFI) of CD86 and CD69 was calculated for each population. The MFI of the unstimulated sample was used to quantify baseline activation.
This example evaluates whether CTM treatment affects B cell receptor (BCR) signaling. BTK is activated downstream of the B cell receptor and leads to upregulation of activation markers CD86 and CD69 on the surface of B cells.

BTK = molecular target: T1, BTK (Mus musculus, UniProt P35991); test: In vivo degradation of BTK in mouse PD experiments with oral dosing; conditions: 24 h
T1 construct: from tissue; host or cells: mouse blood B cells / splenocytes (CD-1 or BALB/c)
Summary of the method: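 CD-1 or BALB/c mice dosed by oral gavage, screens at 90 mg/kg for 6 h, later at lower doses/longer times. Blood or splenocyte BTK measured by intracellular flow cytometry (or HTRF); % degradation from B-cell minus T-cell BTK geometric MFI, relative to vehicle.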

Mino cells = test: Cell viability assay (CellTiter-Glo), Mino cells; format: cell-based; conditions: Mino cells, treatment time 72 h
Source text: (§1) This example evaluates effects of CTM-mediated degradation on cell viability. […] Mino and Rec-1 are models of Mantle Cell Lymphoma, which is sensitive to IMiDs.

Rec-1 cells = test: Cell viability assay (CellTiter-Glo), Rec-1 cells; format: cell-based
Source text: as §1

TMD8 C481S cells = test: Cell viability assay (CellTiter-Glo), TMD8 C481S cells; conditions: for EC50: Homo sapiens, TMD8, 72 h; for EMAX (% viable cells): TMD8 C481S cells, treatment time 72 h
Procedure: (§5) Cell viability was determined using CellTiter-Glo 2.0 Luminescent Cell Viability Assay (Promega, G9242), which quantitates the amount of ATP present as a proxy for the number of viable cells in culture. Cells were plated with densities between 2000-4000 cells per well in 96-well plates. […] CellTiter-Glo reagent was added to cells at a dilution of 1:20, and the plate was incubated ten minutes at room temperature prior to reading the luminescence signal using an EnVision plate reader. Controls included cells treated with DMSO and wells that contained no cells, only media. Background luminescence signal was determined by control wells containing no cells, only media, and was then subtracted from all sample wells. Luminescence values were then normalized to DMSO-treated wells and reported at proportion viable cells.

TMD8 cells = test: Cell viability assay (CellTiter-Glo), TMD8 cells; conditions: for EC50: Homo sapiens, TMD8, 72 h; for EMAX (% viable cells): TMD8 cells, treatment time 72 h
Procedure: as §5
Here, the ability of CTMs to affect viability in BTK-dependent cell lines was assessed.

primary human T cells [2] = test: T cell activation assay, CD25 and CD69 staining (flow cytometry); format: cell-based; conditions: for CD25 Staining Anti-CD3/Anti-CD28 Stimulation / CD69 Staining Anti-CD3/Anti-CD28 Stimulation: fold-change of response relative to baseline; for expression of CD25 and CD69 compared to baseline (anti-CD3/anti-CD28 stimulation alone): primary human T cells
Procedure: (§2) This example evaluates whether CTMs with IMiD activity affect T cell activation. […] These assays were performed to assess whether BTK CTMs with and without IMiD activity affected activation of primary human T cells after stimulation of the T cell receptor with anti-CD3/ati-CD28 stimulation. T cell activation was measured by IL-2 secretion (ELISA assay) and upregulation of activation markers CD25 and CD69 on the surface of T cells (flow cytometry). Data are presented as the fold-change of response relative to baseline (stimulation with anti-CD3/anti-CD28 stimulation in the absence of compound).

primary human T cells [3] = test: T cell activation assay, IL-2 secretion (ELISA); format: cell-based; conditions: for IL-2 secretion compared to baseline (anti-CD3/anti-CD28 stimulation alone): primary human T cells
Procedure: as §2

Aiolos = molecular target: T2, Aiolos (Homo sapiens, UniProt Q96SW2+Q9UKT9); test: Aiolos degradation in Mantle Cell Lymphoma lines (flow cytometry); format: cell-based; conditions: treatment time 24 h
T2 construct: endogenous in cells; host or cells: Mino, Rec-1
Source text: (§3) Ikaros and Aiolos Degradation in Mantle Cell Lymphoma Lines (Ikaros and Aiolos Flow Cytometry)
(§4) This example evaluates the IMiD activity of CTMs in cellular models of Mantle Cell Lymphoma (MCL). […] These assays are to determine potency of CTMs for degrading IMiD neo-substrates in cellular models of MCL and to generate data to inform efficacy studies in MCL xenografts.

Ikaros = molecular target: T3, Ikaros (Homo sapiens, UniProt Q13422+Q96SW2); test: Ikaros degradation in Mantle Cell Lymphoma lines (flow cytometry); format: cell-based; conditions: treatment time 24 h
T3 construct: endogenous in cells; host or cells: Mino, Rec-1
Source text: as §3, §4

BTK C481S = BTK C481S (Homo sapiens, UniProt Q06187, C481S); test: BTK degradation (Total BTK HTRF) in TMD8 cells expressing BTK-C481S; format: cell-based; set-up: endogenous in cells; host or cells: TMD8 BTK-C481S (clone2C3), Cas9 RNP knock-in; conditions: TMD8 BTK-C481S (clone2C3) cells, treatment time 4 h
Procedure: BTK levels were determined using Cisbio Total-BTK HTRF (Homologous Time-Resolved Fluorescence) kit (63ADK064PEG) according to the manufacturer's protocol. Briefly, cells were incubated in 1× supplied lysis buffer for 30 minutes. In an opaque white low volume 96-well plate (Cisbio, 66PL96005), cell lysate was combined with two different specific BTK antibodies, one conjugated with Eu^3+-Cryptate FRET donor and one conjugated with d2 FRET acceptor. Assay controls include wells containing cell lysate with only the Eu^3+-Cryptate FRET donor antibody and wells containing both HTRF antibodies and lysis buffer without cells or control lysate provided by Cisbio. HTRF ratio was calculated as (acceptor signal at 665 nm/donor signal at 620 nm)×10^4. Background HTRF levels were determined from the control well containing the donor, but no acceptor, antibody. Background HTRF levels were subtracted from all samples. Readouts were reported as HTRF levels relative to HTRF levels of DMSO-treated cells. Four-parameter non-linear regressions were performed in GraphPad Prism 7.02 to obtain DC50 values.
BTK Degradation (Total BTK HTRF) at Four Hours in TMD8 Cells Expressing BTK-C481S
This example evaluates the potency of CTM in degrading […]. The BTK binding moieties utilized in CTMs bind to the BTK active site. This example evaluates whether the active site mutation C481S affects CTM-induced degradation of BTK.

[4] = PK data for BTK CTMs (in vivo plasma concentrations); conditions: Mouse Balb/c; for Vd: read-out: Volume of Distribution
Source text: The present example evaluates in vivo plasma concentrations of BTK CTMs to develop PK-PD-efficacy relationship and predict human exposure.

[5] = oral dose 30 mg/kg, splenocytes, HTRF
[6] = 1.4 nM, fold-change of response relative to baseline
[7] = 37 nM, fold-change of response relative to baseline
[8] = 333 nM, fold-change of response relative to baseline (stimulation without compound)

SMILES	EC50 ([1]; read-out: CD69 EC50)	EC50 ([1]; read-out: CD86 EC50)	% BTK Remaining (BTK; [5])	EC50 (TMD8 C481S cells)	EMAX (% viable cells) (TMD8 C481S cells)	EC50 (TMD8 cells)	EMAX (% viable cells) (TMD8 cells)	CD25 Staining Anti-CD3/Anti-CD28 Stimulation (primary human T cells [2]; 1.4 nM)	CD69 Staining Anti-CD3/Anti-CD28 Stimulation (primary human T cells [2]; 1.4 nM)	CD25 Staining Anti-CD3/Anti-CD28 Stimulation (primary human T cells [2]; 37 nM)	CD69 Staining Anti-CD3/Anti-CD28 Stimulation (primary human T cells [2]; 37 nM)	CD25 Staining Anti-CD3/Anti-CD28 Stimulation (primary human T cells [2]; 333 nM)	CD69 Staining Anti-CD3/Anti-CD28 Stimulation (primary human T cells [2]; 333 nM)	IL-2 Secretion Anti-CD3/Anti-CD28 Stimulation (primary human T cells [3]; [6])	IL-2 Secretion Anti-CD3/Anti-CD28 Stimulation (primary human T cells [3]; [7])	IL-2 Secretion Anti-CD3/Anti-CD28 Stimulation (primary human T cells [3]; [8])	other results
CN1CCN([C@@H]2CCCN(c3cnc(C(N)=O)c(Nc4ccc(C5(C)CCN(C[C@H]6CCN(c7ccc8c(c7)C(=O)N(C7CCC(=O)NC7=O)C8=O)C6)CC5)cc4)n3)C2)C1=O (stereo partly drawn) [Compound 71]	1 nM	2 nM	27%														
C=CC(=O)N1CCC[C@@H](n2nc(-c3ccc(Oc4ccccc4)cc3)c3c(N)ncnc32)C1 [Ibrutinib, reference compound]				1040 nM	46%	3 nM	16%	0.92	0.89	0.74	0.74	0.22	0.22	0.84	0.85	0.34	EC50 (Mino cells; Homo sapiens): 498 nM; EMAX (% viable cells) (Mino cells): 79%; EC50 (Rec-1 cells; Homo sapiens, Rec1, treatment time 72 h): 268 nM; EMAX (% viable cells) (Rec-1 cells; treatment time 72 h): 68%
O=C(c1ccc(Oc2ccccc2)cc1Cl)c1c[nH]c2ncnc(N[C@@H]3CC[C@@H](CO)OC3)c12 [ARQ531]	50 nM	70 nM		100 nM	17%	100 nM	16%										
CN1CCN([C@@H]2CCCN(c3cnc(C(N)=O)c(Nc4ccc5c(c4)CCN(C4CN(c6ccc7c(c6)C(=O)N(C6CCC(=O)NC6=O)C7=O)C4)C5)n3)C2)C1=O (stereo partly drawn) [Compound 30]								1.01	1.01	1.14	1.10	1.17	1.16	1.59	3.82	3.95	DC50 (Aiolos; Mino cells): 10 nM; DC50 (Aiolos; Rec-1 cells): 34 nM; DC50 (Ikaros; Mino cells): 1100 nM; DC50 (Ikaros; Rec-1 cells): 1000 nM; expression of CD25 and CD69 compared to baseline (anti-CD3/anti-CD28 stimulation alone) (primary human T cells [2]): unchanged or decreased levels; IL-2 secretion compared to baseline (anti-CD3/anti-CD28 stimulation alone) (primary human T cells [3]): increased IL-2 secretion but not to the level observed with IMiDs
CN1CCN([C@@H]2CCCN(c3cnc(C(N)=O)c(Nc4ccc(C5CCN(C(=O)CCOCCNc6cccc7c6C(=O)N(C6CCC(=O)NC6=O)C7=O)CC5)cc4)n3)C2)C1=O (stereo partly drawn) [Compound 25]								1.25	1.18	1.30	1.33	1.39	1.39	2.42	3.35	3.86	DC50 (Aiolos; Mino cells): 10 nM; DC50 (Aiolos; Rec-1 cells): 31 nM; DC50 (Ikaros; Mino cells): 29 nM; DC50 (Ikaros; Rec-1 cells): 63 nM; expression of CD25 and CD69 compared to baseline (anti-CD3/anti-CD28 stimulation alone) (primary human T cells [2]): unchanged or decreased levels; IL-2 secretion compared to baseline (anti-CD3/anti-CD28 stimulation alone) (primary human T cells [3]): increased IL-2 secretion but not to the level observed with IMiDs

The next lines start with results.

EC50 ([1]; read-out: CD69 EC50)	EC50 ([1]; read-out: CD86 EC50)	% BTK Remaining (BTK; [5])	SMILES	EC50 (TMD8 C481S cells)	EMAX (% viable cells) (TMD8 C481S cells)	EC50 (TMD8 cells)	EMAX (% viable cells) (TMD8 cells)	CD25 Staining Anti-CD3/Anti-CD28 Stimulation (primary human T cells [2]; 1.4 nM)	CD69 Staining Anti-CD3/Anti-CD28 Stimulation (primary human T cells [2]; 1.4 nM)	CD25 Staining Anti-CD3/Anti-CD28 Stimulation (primary human T cells [2]; 37 nM)	CD69 Staining Anti-CD3/Anti-CD28 Stimulation (primary human T cells [2]; 37 nM)	CD25 Staining Anti-CD3/Anti-CD28 Stimulation (primary human T cells [2]; 333 nM)	CD69 Staining Anti-CD3/Anti-CD28 Stimulation (primary human T cells [2]; 333 nM)	IL-2 Secretion Anti-CD3/Anti-CD28 Stimulation (primary human T cells [3]; [6])	IL-2 Secretion Anti-CD3/Anti-CD28 Stimulation (primary human T cells [3]; [7])	IL-2 Secretion Anti-CD3/Anti-CD28 Stimulation (primary human T cells [3]; [8])	other results
~0.2 nM	0.2 nM	26%	NC(=O)c1ncc(N2CCC[C@@H](N3CCOC3=O)C2)nc1Nc1ccc(C2CCN(C[C@H]3CCN(c4ccc5c(c4)C(=O)N(C4CCC(=O)NC4=O)C5=O)C3)CC2)cc1 (stereo partly drawn) [Compound 73]	0.054 nM	19%	0.004 nM	25%										DC50 (BTK C481S): 1.2 nM; AUC ([4]; 1 mg/kg IV): 0.6 µM·h; clearance ([4]; 1 mg/kg IV): 33.8 mL/min/kg; Vd ([4]; 1 mg/kg IV): 3.4 L/kg; AUC ([4]; 10 mg/kg PO): 2.9 µM·h; bioavailability ([4]; 10 mg/kg PO): 47%
0.1 nM	0.3 nM	33%	CN1CCN([C@@H]2CCCN(c3cnc(C(N)=O)c(Nc4ccc(C5CN(CC6CCN(c7ccc8c(=O)n(C9CCC(=O)NC9=O)ccc8c7)CC6)C5)cc4)n3)C2)C1=O (stereo partly drawn) [Compound 69]														% BTK Remaining (BTK; oral dose 0.3 mg/kg, blood, flow cytometry): 112%; % BTK Remaining (BTK; oral dose 3 mg/kg, blood, flow cytometry): 43%; % BTK Remaining (BTK; oral dose 30 mg/kg, blood, flow cytometry): 30%; DC50 (BTK C481S): 0.8 nM; AUC ([4]; 1 mg/kg IV): 0.68 µM·h; clearance ([4]; 1 mg/kg IV): 31.4 mL/min/kg; Vd ([4]; 1 mg/kg IV): 2.2 L/kg; AUC ([4]; 10 mg/kg PO): 0.078 µM·h; bioavailability ([4]; 10 mg/kg PO): 1%
